Laboratory results: US12109231B2 (Neuvivo, Inc., priority 2015, dated 2024)
Like-named read-outs stand apart in the source and are kept apart here.

Experiments:
IL-18 = settings: Phase 2, responders with elevated IL-18 at baseline
Text: (§1) These clinical data provided compelling rationale to test […] in pre-clinical models of Parkinson's disease to investigate its brain penetrance, ability to modulate microglia activation and peripheral immune cell infiltration to the CNS, and protect vulnerable neuronal populations from synuclein-induced degeneration.

ALS patients = system: ALS patients
Text: as §1

LPS = settings: Phase 2, responders positive for LPS at baseline
Text: as §1

patient with depression = system: patient with depression
Text: (§2) Plasma/serum samples are obtained and submitted to a lab-based immunoassay to quantify inflammatory markers in the plasma/serum sample. Inflammatory markers are compared to the patient's pre-treatment levels of plasma/serum inflammatory markers.

[1] = system: patient with bipolar disorder
Text: as §2

patient with autism = system: patient with autism
Text: as §2

[2] = system: patient with posttraumatic stress disorder
Text: as §2

[3] = system: patient with schizophrenia
Text: as §2

[4] = system: G93A SOD-1 mt. mouse model of ALS; settings: SOD-1 mutant mice, 2 mg/kg intravenously every three weeks
Experimental: Chlorite composition administration and survival studies have been done in G93A SOD-1 mt. mouse model of ALS. In this model, the SOD-1 mutant mice begin developing degeneration of neurologic function starting at approximately 70 days of age. The mice were dosed with chlorite composition at 2 mg/kg intravenously every three weeks with neuroscore and survival information being collected weekly.

[5] = system: monocyte/macrophage activation; settings: in vivo
[6] = system: monocyte/macrophage activation; settings: in vitro
markers of inflammation = settings: ALS patients, after a single dose

## sodium chlorite
Monocyte CD16; 24 hours after one dose, compared with baseline pretreatment levels
  reduction of the difference between ALS and normal control level of monocyte CD16 expression toward the normal value: approximately 50%
Monocyte CD16; chlorite treated patients compared to placebo
  level of CD16 expression on the CD16 bright subset of monocytes: Dose-dependent changes
IL-18
  IL-18 in responders following treatment: decreased following treatment
ALS patients; Phase 2
  symptom progression in a subset of patients: may have dose-dependently halted symptom progression
ALS patients; Phase 2, 2 mg/kg, patients above the median wr-CRP, six months of study
  slower rate of progression than placebo patients: 44%
ALS patients; Phase 2, baseline wr-CRP above 1125 ng/ml
  dose dependence of disease progression in patients with above the median wr-CRP value: dose dependent slowing of disease progression
ALS patients; Phase 2, high dose (2 mg/kg), six months of treatment
  patients who did not progress / stopped progressing: 25%
ALS patients; Phase 2, high dose, six months of treatment
  number of non-progressing patients relative to placebo: More than 2 times
ALS patients; Phase 2, high-dose group
  progression in patients with greater inflammation (higher CRP): slowing of progression was observed
LPS
  LPS in responders following treatment: decreased following treatment
Patient with depression; after weekly injection
  behavioral and/or neurophysical symptoms of depression: found to be reduced
Patient with depression; depression, vs pre-treatment levels
  levels of plasma/serum inflammatory markers after treatment: reduced
[1]; after weekly injection
  behavioral and/or neurophysical symptoms of bipolar disorder: found to be reduced
[1]; bipolar disorder, vs pre-treatment levels
  levels of plasma/serum inflammatory markers after treatment: reduced
Patient with autism; after weekly injection
  behavioral and/or neurophysical symptoms of autism: found to be reduced
Patient with autism; autism, vs pre-treatment levels
  levels of plasma/serum inflammatory markers after treatment: reduced
[2]; after weekly injection
  behavioral and/or neurophysical symptoms of posttraumatic stress disorder: found to be reduced
[2]; posttraumatic stress disorder, vs pre-treatment levels
  levels of plasma/serum inflammatory markers after treatment: reduced
[3]; after weekly injection
  behavioral and/or neurophysical symptoms of schizophrenia: found to be reduced
[3]; schizophrenia, vs pre-treatment levels
  levels of plasma/serum inflammatory markers after treatment: reduced
[4]
  survival compared with sham treated animals: almost three weeks longer
[4]; vs sham
  neurologic degeneration (neuroscore): delayed by a similar time
[5]
  markers of monocyte/macrophage activation: reversed
[6]
  markers of monocyte/macrophage activation: reversed
Markers of inflammation
  markers of inflammation: decrease markers of inflammation
